From patent US8158389B2, “Products and methods for in vivo secretion of monatin” (priority 2005, dated 2012)

System: E. coli BL21 DE3
Test: Monatin excretion with sodium decanoate, E. coli BL21 DE3 with or without cysH deletion
Assay type: cell-based, Escherichia coli
Settings: 2.5 mM sodium decanoate, n = 2
Protocol: For inoculum, the E. coli strains BL21 DE3 aspC proA pET32 and BL21 DE3 ΔcysH: : aspCproA pET32 were grown overnight at 37° C. and 250 rpm in Luria-Bertani (“LB”) medium with 100 μg/mL ampicillin.
For the experimental treatments, Trp-1+glucose medium, a minimal medium that has been used for increased production of tryptophan in E. coli cells (Zeman et al. Folia Microbiol. 35:200-204, (1990)), was prepared as follows. To 800 mL nanopure water the following reagents were added: 2 g (NH4)2SO4 and 13.6 g KH2PO4. The pH was adjusted to 7.0, the volume was increased to 948 mL, and the medium was autoclaved. Following sterilization, 0.2 g MgSO4.7H2O, 0.01 g CaCl2.2H2O, and 0.5 mg FeSO4.7H2O were ad to the medium in a 1.8 mL volume followed by addition of 0.2 mL of Neidhardt's micronutrient solution. Neidhardt, F. C., et al., “Culture medium for Enterobacteria,” J. Bacteriol. 119:736-746 (1974). Neidhardt's medium includes (per liter): 0.18 g (NH4)6(MO7)24.4H2O, 1.24 g H3BO3, 0.36 g CoCl2.6H2O, 0.12 g CuSO4 (anhydrous), 0.8 g MnCl2.4H2O, and 0.14 g ZnSO4.7H2O. A 50% glucose solution was prepared separately and sterile-filtered. Forty mL of glucose solution and 10 mL of 1 M 3-Morpholinopropanesulfonic acid (“MOPS”) buffer were added to the base medium (950 mL) for a 1 L final volume.
Conditions for the treatments included 250 rpm agitation throughout and 37° C. up to induction, then, 30° C. following induction. At an OD600 nm between 0.44-0.52, induction of the plasmid genes was initiated. At induction, 1.0 mM IPTG, 0.5 mM pyridoxine hydrochloride, and 0.2 mL's of Balch's vitamins were added. Additions of 10 g/L L-tryptophan, 10 g/L sodium pyruvate, 0.04 mM pyridoxal-5′-phosphate (“PLP”) and 0.2% Tween® 20 (polyoxyethylene 20-sorbitan monolaurate) were made 3.0 hours following induction. At 3 hours after the initial feeding of pyruvate, another 10 g/L of sodium pyruvate was added to each flask. Some treatments included 2.5 mM sodium decanoate (or sterile, distilled water for the 0 mM decanoate treatment) addition at 3.0 hours following induction.

[1] = E. coli BL21 DE3 aspC proA pET32
[2] = E. coli BL21 DE3 ΔcysH::aspC proA pET32

## CCCCCCCCCC(=O)[O-].[Na+] [sodium decanoate]
[1]
  Monatin/dry cell wt., 24 hours: 70.9 mg/g
  Monatin/dry cell wt., 30 hours: 75.0 mg/g
  Monatin/dry cell wt., 48 hours: 44.0 mg/g
[2]
  Monatin/dry cell wt., 24 hours: 115.0 mg/g
  Monatin/dry cell wt., 30 hours: 103.1 mg/g
  Monatin/dry cell wt., 48 hours: 73.3 mg/g
